Laboratory results: the NIST ThermoML archive (doi:10.1021/acs.jced.5b00474)

Assay: xn = mol fraction of the nth substance listed
Conditions: 101 kPa, Liquid; for mass density: Vibrating tube method; for speed of sound: Frequency=3 MHz, Sing-around technique in a fixed-path interferometer

CN1CCCC1=O [N-methylpyrrolidone] + CC#N
Conditions	mass density [kg/m3]	speed of sound [m/s]
293.15 K, x1 = 0.0997	826.597	–
293.15 K, x1 = 0.2019	865.011	–
293.15 K, x1 = 0.2953	895.168	–
293.15 K, x1 = 0.4033	925.343	–
293.15 K, x1 = 0.4999	948.634	–
293.15 K, x1 = 0.5645	962.588	–
293.15 K, x1 = 0.6971	987.869	–
293.15 K, x1 = 0.7909	1002.68	–
293.15 K, x1 = 0.8906	1018.29	–
293.15 K, x1 = 1	1032.25	–
298.15 K, x1 = 0.0997	821.365	1311.6
298.15 K, x1 = 0.2019	859.919	1345.4
298.15 K, x1 = 0.2953	890.188	1375
298.15 K, x1 = 0.4033	920.48	1407.6
298.15 K, x1 = 0.4999	943.847	1434.4
298.15 K, x1 = 0.5645	957.857	1450.8
298.15 K, x1 = 0.6971	983.231	1483.7
298.15 K, x1 = 0.7909	998.089	1503.3
298.15 K, x1 = 0.8906	1013.76	1524.8
298.15 K, x1 = 1	1027.79	1544.6
303.15 K, x1 = 0.0997	816.101	1291.8
303.15 K, x1 = 0.2019	854.802	1325.7
303.15 K, x1 = 0.2953	885.193	1355.4
303.15 K, x1 = 0.4033	915.6	1387.9
303.15 K, x1 = 0.4999	939.067	1414.8
303.15 K, x1 = 0.5645	953.126	1430.7
303.15 K, x1 = 0.6971	978.597	1463.6
303.15 K, x1 = 0.7909	993.514	1483.2
303.15 K, x1 = 0.8906	1009.25	1505.1
303.15 K, x1 = 1	1023.33	1525.3
308.15 K, x1 = 0.0997	810.812	1272
308.15 K, x1 = 0.2019	849.665	1306
308.15 K, x1 = 0.2953	880.18	1335.8
308.15 K, x1 = 0.4033	910.709	1367.7
308.15 K, x1 = 0.4999	934.271	1394.8
308.15 K, x1 = 0.5645	948.386	1410.4
308.15 K, x1 = 0.6971	973.957	1443.4
308.15 K, x1 = 0.7909	988.935	1462.8
308.15 K, x1 = 0.8906	1004.73	1485.2
308.15 K, x1 = 1	1018.87	1506
313.15 K, x1 = 0.0997	805.495	1252.2
313.15 K, x1 = 0.2019	844.503	1286.4
313.15 K, x1 = 0.2953	875.146	1316.3
313.15 K, x1 = 0.4033	905.801	1347.6
313.15 K, x1 = 0.4999	929.461	1374.7
313.15 K, x1 = 0.5645	943.637	1390.2
313.15 K, x1 = 0.6971	969.311	1423.3
313.15 K, x1 = 0.7909	984.35	1442.6
313.15 K, x1 = 0.8906	1000.21	1465.5
313.15 K, x1 = 1	1014.41	1486.8
318.15 K, x1 = 0.0997	800.149	1232.4
318.15 K, x1 = 0.2019	839.318	1266.8
318.15 K, x1 = 0.2953	870.091	1296.9
318.15 K, x1 = 0.4999	924.64	1354.8
318.15 K, x1 = 0.7909	979.759	1422.4
318.15 K, x1 = 0.8906	995.681	1445.9
318.15 K, x1 = 1	1009.95	1467.8
318.16 K, x1 = 0.4033	900.875	1327.4
318.16 K, x1 = 0.5645	938.874	1370.2
318.16 K, x1 = 0.6971	964.657	1403.3
323.15 K, x1 = 0.4033	895.938	1307.5
323.16 K, x1 = 0.0997	794.775	1212.6
323.16 K, x1 = 0.2019	834.109	1247.3
323.16 K, x1 = 0.2953	865.017	1277.6
323.16 K, x1 = 0.4999	919.805	1335
323.16 K, x1 = 0.5645	934.1	1350.3
323.16 K, x1 = 0.6971	959.996	1383.4
323.16 K, x1 = 0.7909	975.164	1402.4
323.16 K, x1 = 0.8906	991.156	1426.5
323.16 K, x1 = 1	1005.48	1448.9

ClC(Cl)Cl [trichloromethane] + CN1CCCC1=O
Conditions	mass density [kg/m3]	speed of sound [m/s]
293.14 K, x2 = 0.1079	1437.79	1051.6
293.15 K, x2 = 0	1488.55	1000.9
293.15 K, x2 = 0.1061	1438.96	1050
293.15 K, x2 = 0.2054	1390.74	1098.6
293.15 K, x2 = 0.2994	1345.24	1146
293.15 K, x2 = 0.4032	1294.06	1198.4
293.15 K, x2 = 0.4961	1249.81	1248.4
293.15 K, x2 = 0.6006	1201.33	1307.8
293.15 K, x2 = 0.6854	1163.12	1359.8
293.15 K, x2 = 0.7986	1114.37	1430.8
298.14 K, x2 = 0.1079	1429.34	1034.9
298.14 K, x2 = 0.2994	1338.24	1130.2
298.14 K, x2 = 0.7986	1109.43	1413
298.15 K, x2 = 0	1479.07	984.33
298.15 K, x2 = 0.2054	1383.07	1082.1
298.15 K, x2 = 0.4032	1287.66	1181.9
298.15 K, x2 = 0.4961	1243.85	1231.9
298.15 K, x2 = 0.6006	1195.78	1290.7
298.15 K, x2 = 0.6854	1157.85	1342.1
298.16 K, x2 = 0.1061	1430.5	1033.6
303.14 K, x2 = 0.1079	1420.85	1018.3
303.14 K, x2 = 0.2994	1331.2	1114.1
303.14 K, x2 = 0.7986	1104.48	1395.1
303.15 K, x2 = 0.1061	1422	1016.3
303.15 K, x2 = 0.2054	1375.36	1065.2
303.15 K, x2 = 0.4032	1281.24	1165.2
303.15 K, x2 = 0.4961	1237.89	1215.2
303.15 K, x2 = 0.6006	1190.22	1273.5
303.15 K, x2 = 0.6854	1152.57	1324.2
303.16 K, x2 = 0	1469.52	967.53
308.14 K, x2 = 0.1079	1412.32	1001.8
308.14 K, x2 = 0.2994	1324.14	1098.1
308.14 K, x2 = 0.7986	1099.52	1377.3
308.15 K, x2 = 0	1459.91	950.62
308.15 K, x2 = 0.1061	1413.45	999.25
308.15 K, x2 = 0.2054	1367.63	1048.3
308.15 K, x2 = 0.4032	1274.79	1148.5
308.15 K, x2 = 0.4961	1231.6	1198.6
308.15 K, x2 = 0.6006	1184.64	1256.3
308.15 K, x2 = 0.6854	1147.28	1306.2
